Test results taken from PubChem BioAssay (NCI).
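GI50 marks 50% less growth. TGI denotes the concentration required for complete inhibition of growth.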

How the values were obtained:
Assay in all cases: NCI anticancer screen, dose series, 384-well format
[1] = system: NCI-H23 lung
[2] = system: LOX IMVI melanoma
[3] = system: HCC-2998 colon
[4] = system: KM12 colon
[5] = system: OVCAR-3 ovarian
[6] = system: HS 578T breast
[7] = system: A549 NSCLC
[8] = system: T-47D breast
[9] = system: NCI-H322M lung
[10] = system: TK-10 renal
[11] = system: NCI-H522 lung
[12] = system: SR leukemia
[13] = system: SNB-19 CNS
[14] = system: NCI-H226 lung
[15] = system: SN12C renal
[16] = system: UACC-62 melanoma
[17] = system: SNB-75 CNS
[18] = system: K-562 leukemia
[19] = system: SF-539 CNS
[20] = system: UO-31 renal
[21] = system: HOP-92 NSCLC
[22] = system: NCI-H460 NSCLC
[23] = system: SK-MEL-28 melanoma
[24] = system: BT-549 breast
[25] = system: U251 glioblastoma
[26] = system: MOLT-4 leukemia
[27] = system: SK-OV-3 ovarian
[28] = system: RXF 393 renal
[29] = system: PC-3 prostate

Compound: CC1CCC(n2c3cnccc3c3cnc(Nc4ccc5c(n4)CCN(C(=O)CO)C5)nc32)CC1 (stereo not drawn)
- GI50 [1]: 3.4 µM
- TGI [1]: > 100 µM
- GI50 [2]: 2.4 µM
- TGI [2]: > 100 µM
- GI50 [3]: 1.69 µM
- TGI [3]: > 100 µM
- GI50 [4]: 0.293 µM
- TGI [4]: 4.05 µM
- GI50 [5]: 5.68 µM
- TGI [5]: 12.6 µM
- GI50 [6]: 18.3 µM
- TGI [6]: > 100 µM
- GI50 [7]: 2.15 µM
- TGI [7]: > 100 µM
- GI50 [8]: > 100 µM
- TGI [8]: > 100 µM
- GI50 [9]: 8.61 µM
- TGI [9]: > 26.4 µM
- GI50 [10]: 5.16 µM
- TGI [10]: > 100 µM
- GI50 [11]: 6.06 µM
- TGI [11]: > 100 µM
- GI50 [12]: 0.316 µM
- TGI [12]: 0.829 µM
- GI50 [13]: 7.56 µM
- TGI [13]: > 100 µM
- GI50 [14]: 9.33 µM
- TGI [14]: > 100 µM
- GI50 [15]: 16.3 µM
- TGI [15]: > 100 µM
- GI50 [16]: 6.15 µM
- TGI [16]: > 100 µM
- GI50 [17]: 4.47 µM
- TGI [17]: > 20.3 µM
- GI50 [18]: 3.64 µM
- TGI [18]: > 100 µM
- GI50 [19]: 5.87 µM
- TGI [19]: > 100 µM
- GI50 [20]: 15.1 µM
- TGI [20]: > 100 µM
- GI50 [21]: 6.32 µM
- TGI [21]: > 20.6 µM
- GI50 [22]: 0.749 µM
- TGI [22]: 4.74 µM
- GI50 [23]: 11.9 µM
- TGI [23]: > 100 µM
- GI50 [24]: 6.54 µM
- TGI [24]: > 72.4 µM
- GI50 [25]: 7.16 µM
- TGI [25]: > 100 µM
- GI50 [26]: 0.278 µM
- TGI [26]: 2.71 µM
- GI50 [27]: 21.6 µM
- TGI [27]: > 100 µM
- GI50 [28]: > 20.7 µM
- TGI [28]: > 100 µM
- GI50 [29]: 7.58 µM
- TGI [29]: > 81.2 µM
